Assays:
influenza A H1N1 in MDCK = type: cell-based; details: 0, 0.1 μM, 1 μM, 10 μM and 100 μM
[1] = system: neurons from Cln7 knock out (KO) mice; test: In vitro model of Batten disease, glycolytic flux; type: cell-based, mouse; details: 10 nM, 24 hours
Experimental: Primary cultures of C57BL/6J WT and Cln7Δex2 mice cortical neurons were prepared from fetal animals of 14.5 days of gestation, seeded at 1.8·10^5 cells/cm2 in plastic plates coated with poly-D-lysine […] and incubated in Neurobasal (Life Technologies) supplemented with 2 mM glutamine, 5 mM of glucose, 0.25 mM pyruvate and 2% B27 supplement (Life Technologies). Cells were incubated at 37° C. in a humidified 5% CO2-containing atmosphere. At 72 hours after plating, medium was replaced using Neurobasal (Life Technologies) supplemented with 2 mM glutamine, 5 mM glucose, 0.25 mM pyruvate and 2% B27 supplement (Life Technologies) minus antioxidants (MAO; i.e., lacking vitamin E, vitamin E acetate, superoxide dismutase, catalase, and glutathione). Six days after the plating medium was replaced again. Cells were used at day 9.
Glycolytic flux was measured in 8 cm2 flasks of adherent cells at 60-70% confluence containing a central microcentrifuge tube with 1 ml H2O for 3H2O equilibration. […]. […] Glycolytic flux was measured by assaying the rate of 3H2O production from [3-3H]glucose by incubating cells with 5μ Ci D-[3-3H]glucose in KRPG buffer per flask for 120 min, as previously described [Vicente-Gutierrez, C. et al. Astrocytic mitochondrial ROS modulate brain metabolism and mouse behavior. […] The 3H2O was then measured by liquid scintillation counting (Tri-Carb 4810 TR, PerkinElmer). […]

[2] = system: mouse cortical primary neurons; test: MG132-induced neuronal apoptosis (annexin V/7-AAD flow cytometry); type: cell-based; details: MG132 24 hours; inhibitor 0.01 μM
Experimental: Primary cultures of C57BL/6 mice cortical neurons were prepared from fetal animals of 14.5 days of gestation, seeded at 1.8·10^5 cells/cm^2 in plastic plates coated with poly-D-lysine (10 mg/ml) and incubated in Neurobasal (Life Technologies) supplemented with 2 mM glutamine, 5 mM of glucose, 0.25 mM pyruvate and 2% B27 supplement (Life Technologies). Cells were incubated at 37° C. in a humidified 5% CO2-containing atmosphere. At 72 hours after plating, medium was replaced using Neurobasal (Life Technologies) supplemented with 2 mM glutamine, 5 mM glucose, 0.25 mM pyruvate and 2% B27 supplement (Life Technologies) minus antioxidants (MAO; i.e., lacking vitamin E, vitamin E acetate, superoxide dismutase, catalase and glutathione). […] APC/C-conjugated annexin-V and 7-amino-actinomycin D (7-AAD) (Becton Dickinson Biosciences, BDB, San Jose, Calif., USA) were used to determine quantitatively the percentage of apoptotic neurons by flow cytometry. Cells were stained with annexin V-APC and 7-AAD, following the manufacturer's instructions, and were analysed on a FACScalibur™ flow cytometer (15 mW argon ion laser tuned at 488 nm; CellQuest software, Becton Dickinson Biosciences) using the CellQuest software (BDB). Both GFP+ and GFP− cells were analyzed separately, and the annexin V-APC-stained cells that were 7-AAD-negative were considered to be apoptotic.

[3] = system: Caenorhabditis elegans N2; test: C. elegans life span in 96 well microtiter plates; type: in vivo; details: strain N2
Source text: The test of AZ67 compound had been made according to protocol disclosed in Solis, G. M., Petrascheck, M. Measuring Caenorhabditis elegans

[4] = system: iPSC-derived neural precursor cells (NPC) from CLN7 patients; test: Patient-derived neural precursor cells, ATP5A immunocytochemistry; type: cell-based, human
Experimental: iPSC were generated from two CLN7 patients (Pa380 and Pa474). then characterized and differentiated to NPC as previously described39. […]
NPCs were fixed with 100% iced-cold methanol for 5 min and incubated in blocking solution (1% (v/v) normal goat serum, 0.1% (w/v) bovine serum albumin (BSA), 0.1% (v/v) Triton X-100 in DPBS). […] Slides were mounted with VECTASHIELD Mounting Medium with DAPI, incubated for 24 h at 4° C. and imaged with a Zeiss Axio Imager M2 fluorescence microscope or under an inverted microscope (Nikon; Eclipse Ti-E) equipped with a pre-centred fibre illuminator (Nikon; Intensilight C-HGFI), B/W CCD digital camera (Hamamatsu; ORCA-E.R.). Fluorescence quantification was performed. after appropriate thresholding using the ImageJ software (NIH). The pixel intensity profile of ATP5A immunodecoration was analyzed across the maximal axis of the cell that departs from the nucleus, using the plot profile plugin of ImageJ software. […]

## Cc1noc(C)c1Cn1cc(C#N)c2cc(Oc3ccc(NC(=O)[C@@H]4CCCN4)cc3)ccc21 [AZ67, (2S)-N-[4-({3-cyano-1-[(3,5-dimethyl-1,2-oxazol-4-yl)methyl]-1H-indol-5-yl}oxy)phenyl]pyrrolidine-2-carboxamide]
Influenza A H1N1 in MDCK
  antiviral activity (anti-HA immunostain): demonstrate antiviral activity
[1]
  rate of glycolysis (glycolytic flux): reduce the excessive glycolysis to normal levels
[2]
  prevention of neuronal apoptosis caused by MG132: ~45%
[3]; Conc 10 uM, set AI
  % LS change: −8%
  Lifespan: 18.81 days
[3]; Conc 100 uM, set AI
  % LS change: 24%
  Lifespan: 25.45 days
[3]; conc 10, set Aib
  % LS change: 15%
  Lifespan: 25.98 days
[3]; conc 100, set Aib
  % LS change: 22%
  Lifespan: 27.47 days
[4]
  loss of perinuclear mitochondria: rectified the loss of perinuclear mitochondria
